Measurements: article PMC8198049, “Synthesis and Evaluation of the Tetracyclic Ring-System of Isocryptolepine and Regioisomers for Antimalarial, Antiproliferative and Antimicrobial Activities” (Molecules, 2021)
Converted amounts (≈) assume the structure as drawn.

Legend:
E. coli (ATCC 259233) = experiment: Bacterial growth inhibition assay; format: cell-based, Escherichia coli; set-up: MIC (Gentamycin, unit not given): unit not given beside the values; conditions: for MIC: Escherichia coli, ATCC259233
Protocol: (§1) The prepared samples were tested for in vitro antimicrobial activity against E. faecalis, E. coli, P. aeruginosa, S. aureus, Streptococcus agalactiae and S. epidermis using gentamycin as a reference compound.
To determine and quantify antimicrobial activity, a bacteria growth inhibition assay in liquid media was executed. Compounds 2–3, 4, 8–10, 13–14, 16, 18, and 20 were tested against Staphylococcus aureus (ATCC 25923), Escherichia coli (ATCC 259233), Enterococcus faecialis (ATCC 29122), Pseudomonas aeruginosa (ATCC 27853) and Streptococcus agalactiae (ATCC 12386); all strains from LGC Standards (Teddington, UK). S. aureus, E. coli, and P. aeruginosa were grown in Muller Hinton broth (275730, Becton, Franklin Lakes, NJ, USA). E. faecalis and S. agalactiae were cultured in brain hearth infusion broth (53286, Sigma, St Louise, MO, USA). Fresh bacterial colonies were transferred in the respective medium and incubated at 37 °C overnight. The bacterial cultures were diluted to a culture density representing the log phase and µL/well were pipetted into a 96-well microtiter plate (734–2097, NunclonTM, Thermo Scientific, Waltham, MA, USA). The final cell density was 1500–15.000 colony forming units/well. The compound was diluted in 2% (v/v) DMSO in ddH2O, providing a final assay concentration of 50% of the prepared sample, since 50 µL of sample in DMSO/water were added to 50 µL bacterial culture. After adding the samples to the plates, they were incubated overnight at 37 °C and the growth was determined by measuring the optical density at λ = 600 nm (OD600) with a 1420 Multilabel Counter VICTOR3TM (Perkin Elmer, Waltham, MA, USA). A water sample was used as a reference control, growth medium without bacteria was used as a negative control and dilution series of gentamycin (A2712, Merck, Darmstadt, DE) from 32 to 0.01 µg/mL was used as positive control and visually inspected for bacterial growth. The positive control was used as a system suitability test and the results of the antimicrobial assay were only considered valid when positive control was passed. […]

[1] = system: Streptococcus agalactiae (ATCC 12386); experiment: Bacterial growth inhibition assay; format: cell-based; set-up: MIC (Gentamycin, unit not given): unit not given beside the values; conditions: for MIC: ATCC12386
Protocol: as §1
(§2) To determine and quantify antimicrobial activity, a bacteria growth inhibition assay in liquid media was executed. Compounds 2–3, 4, 8–10, 13–14, 16, 18, and 20 were tested against Staphylococcus aureus (ATCC 25923), Escherichia coli (ATCC 259233), Enterococcus faecialis (ATCC 29122), Pseudomonas aeruginosa (ATCC 27853) and Streptococcus agalactiae (ATCC 12386); all strains from LGC Standards (Teddington, UK). S. aureus, E. coli, and P. aeruginosa were grown in Muller Hinton broth (275730, Becton, Franklin Lakes, NJ, USA). E. faecalis and S. agalactiae were cultured in brain hearth infusion broth (53286, Sigma, St Louise, MO, USA). Fresh bacterial colonies were transferred in the respective medium and incubated at 37 °C overnight. The bacterial cultures were diluted to a culture density representing the log phase and µL/well were pipetted into a 96-well microtiter plate (734–2097, NunclonTM, Thermo Scientific, Waltham, MA, USA). The final cell density was 1500–15.000 colony forming units/well. The compound was diluted in 2% (v/v) DMSO in ddH2O, providing a final assay concentration of 50% of the prepared sample, since 50 µL of sample in DMSO/water were added to 50 µL bacterial culture. After adding the samples to the plates, they were incubated overnight at 37 °C and the growth was determined by measuring the optical density at λ = 600 nm (OD600) with a 1420 Multilabel Counter VICTOR3TM (Perkin Elmer, Waltham, MA, USA). A water sample was used as a reference control, growth medium without bacteria was used as a negative control and dilution series of gentamycin (A2712, Merck, Darmstadt, DE) from 32 to 0.01 µg/mL was used as positive control and visually inspected for bacterial growth. The positive control was used as a system suitability test and the results of the antimicrobial assay were only considered valid when positive control was passed. The final concentration of DMSO in the assays was ≤2% (v/v) and was known to have no effect in the tested bacteria. The data was processed using GraphPad Prism 8.

[2] = system: P. aeruginosa (ATCC 27853); experiment: Bacterial growth inhibition assay; format: cell-based, Pseudomonas aeruginosa; set-up: unit not given beside the values; conditions: reference compound
Protocol: as §1
(§3) To determine and quantify antimicrobial activity, a bacteria growth inhibition assay in liquid media was executed. Compounds 2–3, 4, 8–10, 13–14, 16, 18, and 20 were tested against Staphylococcus aureus (ATCC 25923), Escherichia coli (ATCC 259233), Enterococcus faecialis (ATCC 29122), Pseudomonas aeruginosa (ATCC 27853) and Streptococcus agalactiae (ATCC 12386); all strains from LGC Standards (Teddington, UK). S. aureus, E. coli, and P. aeruginosa were grown in Muller Hinton broth (275730, Becton, Franklin Lakes, NJ, USA). E. faecalis and S. agalactiae were cultured in brain hearth infusion broth (53286, Sigma, St Louise, MO, USA). Fresh bacterial colonies were transferred in the respective medium and incubated at 37 °C overnight. The bacterial cultures were diluted to a culture density representing the log phase and µL/well were pipetted into a 96-well microtiter plate (734–2097, NunclonTM, Thermo Scientific, Waltham, MA, USA). […] After adding the samples to the plates, they were incubated overnight at 37 °C and the growth was determined by measuring the optical density at λ = 600 nm (OD600) with a 1420 Multilabel Counter VICTOR3TM (Perkin Elmer, Waltham, MA, USA). […]

S. aureus (ATCC 25923) = experiment: Bacterial growth inhibition assay; format: cell-based, Staphylococcus aureus; set-up: MIC (Gentamycin, unit not given): unit not given beside the values; conditions: for MIC: Staphylococcus aureus, ATCC25923
Protocol: as §1, §2

E. faecalis (ATCC 29122) = experiment: Bacterial growth inhibition assay; format: cell-based, Enterococcus faecialis; set-up: MIC (Gentamycin, unit not given): unit not given beside the values
Protocol: as §1, §2

[3] = Cytotoxicity assay (resazurin-based viability); format: cell-based; conditions: human, HEK293 cells, mean ± standard deviation, two separate experiments
Protocol: Fluorescence was measured using an EnSight plate reader (PerkinElmer, Waltham, MA, USA).

[4] = system: Plasmodium falciparum 3D7 strain; experiment: Antiplasmodial imaging assay; format: cell-based; conditions: P. falciparum 3D7, 72 h, mean ± standard deviation, two separate experiments; for IC50: Plasmodium falciparum
Protocol: (§4) Compounds tested in the antiproliferative assays were tested in 11 dilution points (0.02 µM–40 µM or 0.04 µM–80 µM).
(§5) Antiplasmodial activity was determined as previously described by Duffy and Avery. […] After incubation, plates were stained with 4’,6-diamidino-2-phenylindole (DAPI) in a permeabilization buffer for 5 h at rt in the dark. Plates were imaged on the Opera confocal microplate image reader (PerkinElmer).

[5] = Antiplasmodial imaging assay; format: cell-based, Plasmodium falciparum; conditions: human (HEK293) and Plasmodium falciparum (3D7), HEK293 cells versus Plasmodium falciparum 3D7 culture; HEK293 vs 3D7; read-out: SI (selectivity index = cytotoxicity in HEK293/activity in 3D7)
Protocol: as §4, §5

[6] = system: MDA-MB-231 (human breast adenocarcinoma); experiment: Antiproliferative assay (resazurin); format: cell-based; conditions: Homo sapiens, MDA-MB-231; 72 h compound incubation; mean ± sem, two separate experiments
Protocol: (§6) Compounds tested in the antiproliferative assays were tested in 11 dilution points (0.02 µM–40 µM or 0.04 µM–80 µM). […] HCT116 cells were maintained in McCoy’s 5A media (Life Technologies, CA, USA), MDA-MB-231 cells were cultured in DMEM media (Life Technologies) with 10 mM HEPES (Life Technologies), whilst PC-3 cells were maintained in RPMI media (Life Technologies). All media were supplemented with 10% heat-inactivated fetal bovine serum (Australian source; Corning, CA, USA) and all cells were incubated at 37 °C in a humidified incubator with 5% CO2. Cells were seeded in 384-well plates (Greiner Bio-One, NC, USA) using the respective complete media. After 24 h cell seeding, compounds were added and antiproliferative activity was determined using the resazurin assay after 72 h compound incubation. Briefly, cells were incubated with 60 µM resazurin (Cayman, MI, USA) for 6 h at 37 °C and fluorescence signals were measured using a microplate reader (EnSight, PerkinElmer, Waltham, MA, USA).

[7] = system: PC-3 (human prostate cancer); experiment: Antiproliferative assay (resazurin); format: cell-based; conditions: Homo sapiens; 72 h compound incubation; mean ± sem, two separate experiments
Protocol: as §6

[8] = system: HCT116 (human colon cancer); experiment: Antiproliferative assay (resazurin); format: cell-based; conditions: Homo sapiens, HCT-116; 72 h compound incubation; mean ± sem, two separate experiments
Protocol: as §6

[9] = system: E. faecalis, E. coli, P. aeruginosa, S. aureus, Streptococcus agalactiae and S. epidermis; experiment: Antimicrobial and biofilm inhibition assays, whole panel of tested strains; format: cell-based; conditions: five bacterial strains and biofilm formation; tested up to 100 µM
Protocol: as §1, §3

[10] = system: S. epidermis (ATCC 35984); experiment: Biofilm formation inhibition assay; format: cell-based, Staphylococcus epidermidis; conditions: inhibition of biofilm formation
Protocol: as §1
For testing the inhibition of biofilm formation, the biofilm-producing Staphylococcus epidermidis (ATCC 35984) was grown in Tryptic Soy Broth (TSB, 105459, Merck, Kenilworth, NJ, USA) overnight at 37 °C. The overnight culture was diluted in fresh medium with 1% glucose (D9434, Sigma) before being transferred to a 96-well microtiter plate; 50 µL/well were incubated overnight with 50 µL of the test compound dissolved in 2% (v/v) DMSO aq. added in duplicates. The bacterial culture was removed from the plate and the plate was washed with tap water. The biofilm was fixed at 65 °C for 1 h before 70 µL 0.1% crystal violet (115940, Millipore, Burlington, MA, USA) was added to the wells for 10 min of incubation and 70 µL of 70% ethanol was then added to each well and the plate incubated on a shaker for 5–10 min. Biofilm formation inhibition was assessed by the presence of violet color and measured at […] absorbance using a 1420 Multilabel Counter VICTOR3TM; 50 µL of a non-biofilm forming Staphylococcus haemolyticus (clinical isolate 8-7A, University Hospital of North Norway Tromsø, Norway) mixed in 50 µL autoclaved Milli-Q water was used as a control; 50 µL S. epidermidis mixed in 50 µL autoclaved Milli-Q water was used as the control for biofilm formation; and 50 µL TSB with 50 µL autoclaved Milli-Q water was used as a medium blank control.

Compound	MIC (Gentamycin, unit not given) (E. coli (ATCC 259233); reference compound)	MIC (Gentamycin, unit not given) ([1]; reference compound)	MIC (Gentamycin, unit not given) [2]	MIC (Gentamycin, unit not given) (S. aureus (ATCC 25923); reference compound)	MIC (Gentamycin, unit not given) (E. faecalis (ATCC 29122); reference compound)	IC50 at 72 h [3]	IC50 [4]	selectivity ratio at 72 h [5]	MIC (E. coli (ATCC 259233))	MIC [1]	IC50 [6]	IC50 [7]	IC50 [8]	MIC (S. aureus (ATCC 25923))	activity against any of the tested strains [9]	MBIC [10]	MIC (E. faecalis (ATCC 29122); Enterococcus faecalis, ATCC29122)	3D7 IC50 [4]	melting point
gentamycin [reference compound]	0.13	4	0.25	0.06	8														
COc1cnc2cccc3c2c1Nc1ccccc1-3 [Compound 4b, 6-methoxy-7H-pyrido[4,3,2-gh]phenanthridine]						3.657 ± 0.002 µM	866 ± 2 nM	4.2	50 µM (≈ 12.4 µg/mL)	75 µM (≈ 18.6 µg/mL)	1000 ± 297 nM	0.024 ± 0.003 µM	166 ± 16 nM	75 µM (≈ 18.6 µg/mL)					
COC1=CN(C)c2cccc3c2c1nc1ccccc13 [Compound 8b, 6-Methoxy-4-methyl-4H-pyrido[4,3,2-gh]phenanthridine]						5.057 ± 0.045 µM	1550 ± 27 nM	3.3			814 ± 162 nM	4.54 ± 0.361 µM	871 ± 172 nM		complete loss of activity				
Cn1cc2c3ccccc3nc-2c2ccccc21 [Isocryptolepine (3a), isocryptolepine]						2.07 ± 0.07 µM	1210 ± 84 nM	1.7	100 µM (≈ 23.2 µg/mL)	100 µM (≈ 23.2 µg/mL)	695 ± 130 nM	1.821 ± 0.007 µM	667 ± 45 nM	100 µM (≈ 23.2 µg/mL)		100 µM	100 µM (≈ 23.2 µg/mL)		
c1ccc2c(c1)[nH]c1ccc3ncccc3c12 [Compound 9a, 7H-Pyrido[2,3-c]carbazole]						> 80 µM	6825 ± 61 nM	> 11.7		100 µM (≈ 21.8 µg/mL)	21500 nM	17.8 µM	20000 nM			100 µM		little to no activity	204 to 205 °C
